# Measurements reported in paper PMC4365270 (Cancer Chemotherapy and Pharmacology, 2015).
# Entries after “also recorded” stand apart in the source; their conditions may differ.
# How the values were obtained:
# [1] = Safety/tolerability: AE, ADR, DLT in patients with advanced cancer; type: in vivo
# Text: This was a multicenter, uncontrolled, open-label, dose-escalation study on DEBIO1143 in patients with advanced cancer. It employed an accelerated titration design for dose escalation with 100 % dose increments in consecutively enrolled single patients until drug-related grade-2 toxicity was observed during the initial treatment cycle (until day 28 or day 21 as per protocol amendment). If this was the case, cohort size was expanded to three patients and dosing increment was reduced to 50 % of the last dose. Dose escalation was to be stopped at the MTD which was considered exceeded if at any dose level more than one patient experienced dose-limiting toxicity (DLT) during the first treatment cycle. DLT was defined as any of the following: (a) non-hematological toxicity of grade ≥3 (excluding nausea, vomiting, diarrhea unless not controlled by maximal antiemetic/diarrheal therapy for >24 h); (b) anemia or neutropenia of grade ≥3 or thrombocytopenia of grade 4 or any grade if associated with clinically significant bleeding; (c) any AE resulting in dose delay or reduction; (d) any toxicity considered dose-limiting by the investigator. If only one out of the three patients of a cohort experienced drug-related DLT, the cohort was expanded by another three patients to be treated at the same dose level. If none of these additional patients experienced DLT, the dose escalation by 50 %, rounded down to the nearest capsule strength combination, continued in the next cohort of three patients.
# The incidence of AE, ADR, and DLT was recorded at all scheduled visits (on days 1, 15, and 28 of each cycle and additionally on days 5, 8, and 22 of cycle 1) and graded according to the Common Terminology Criteria for Adverse Events, version 4.0 of the National Cancer Institute. Moreover, safety laboratory, 12-lead ECG, vital sign measurements, and physical examinations were performed.
# cIAP-1 = molecular target: T1, cIAP-1 (Homo sapiens, UniProt Q13490); experiment: cIAP1 degradation in PBMCs, Western blot; type: in vivo
# T1 construct: endogenous in cells; host or cells: peripheral blood mononuclear cells (PBMCs) of patients
# T1 sequence (Q13490 whole entry): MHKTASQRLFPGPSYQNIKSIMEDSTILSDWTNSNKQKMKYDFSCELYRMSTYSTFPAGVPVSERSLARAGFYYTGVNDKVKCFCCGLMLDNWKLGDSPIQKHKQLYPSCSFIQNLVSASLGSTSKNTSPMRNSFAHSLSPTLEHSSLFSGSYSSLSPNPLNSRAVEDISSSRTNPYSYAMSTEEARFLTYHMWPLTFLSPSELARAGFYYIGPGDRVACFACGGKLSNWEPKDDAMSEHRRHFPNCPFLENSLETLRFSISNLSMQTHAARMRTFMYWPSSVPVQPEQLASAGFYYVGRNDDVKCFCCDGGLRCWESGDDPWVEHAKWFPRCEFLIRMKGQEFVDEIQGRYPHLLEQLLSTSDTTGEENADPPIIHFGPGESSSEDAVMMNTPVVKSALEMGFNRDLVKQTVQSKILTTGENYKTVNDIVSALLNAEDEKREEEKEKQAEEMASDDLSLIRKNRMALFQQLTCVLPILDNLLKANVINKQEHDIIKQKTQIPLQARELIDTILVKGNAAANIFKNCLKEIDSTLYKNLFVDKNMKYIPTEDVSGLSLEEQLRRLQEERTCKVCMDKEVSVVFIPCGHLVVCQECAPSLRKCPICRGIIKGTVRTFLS
# Experimental: Pharmacokinetic samples were taken from all patients on day 1 (predose, 0.5, 1, 2, 3, 4, 6, 8, 12, 18 h postdose) and on day 5 (predose, 0.5, 1, 2, 3, 4, 6, 8 h postdose) of the first cycle. In addition, for exploratory PD analysis of IAP inhibition and activation of apoptosis, optional skin and tumor biopsies were taken from consenting patients on days 1 (predose) and 5 and blood samples on day 1 (predose, 1, 3, 6, 8, 12 h postdose), day 2 (predose), and day 5 (3 h postdose).
# cIAP-1 levels were measured in tumor tissue and surrogate tissue as available. Peripheral blood mononuclear cells (PBMCs) were analyzed for DEBIO1143-induced cIAP-1 degradation. Plasma native cytokeratin-18 (M65) or caspase-3 generated cytokeratin-18 fragments (M30), interleukin 8 (IL8), chemokine ligand 2 (CCL2, MCP1), and tumor necrosis factor α (TNFα) were measured by ELISA as markers of epithelial cell death and inflammation on days 1 (predose, 1, 3, 6, and 12 h postdose), 2, and 5.
# For the detection of cIAP-1 in paraffin-embedded human tissue, a validated immunohistochemical (IHC) assay was used. DEBIO1143-induced cIAP-1 degradation was measured in PBMCs using Western blot. Plasma biomarkers were measured through commercial ELISAs. All laboratory analyses were performed by MPI Research, Inc. (PK) and Mosaic Laboratory, LLC (PD).
smiles,measurement,setting,value
CN[C@@H](C)C(=O)N[C@H]1CN(C(=O)CC(C)C)CC[C@H]2CC[C@@H](C(=O)NC(c3ccccc3)c3ccccc3)N2C1=O [DEBIO1143],Deaths during the study,[1]; N=31,No patient died
same,Dose dependence of AEs,"[1]; human, in vivo",neither incidence nor severity increased with dose
same,Dose-limiting toxicity observed,"[1]; human, in vivo",grade 3 reversible ALT elevation
same,Grade 4–5 treatment-related AE,"[1]; human, in vivo",no grade 4–5 treatment-related AE
same,Number of AEs,"[1]; human, in vivo",242
same,Number of SAEs,"[1]; human, in vivo",13
same,Number of dose-limiting toxicities (DLT),"[1]; human, in vivo",one
same,SAEs related to study drug,"[1]; human, in vivo",none of which was considered related to study drug
same,"Safety laboratory, ECG, vital signs, body weight, ECOG performance status","[1]; human, in vivo",No clinically meaningful trends
same,Maximum tolerated dose (MTD),"[1]; oral, days 1–5 every 2 or 3 weeks, up to 900 mg",No MTD was found; also recorded: not reached
same,"cIAP1/Actin in PBMC, mean (SD)","cIAP-1; 120 mg, 1h, N=1",2% (0) % from baseline
same,"cIAP1/Actin in PBMC, median (range)","cIAP-1; 120 mg, 1h, N=1",2 (2-2) % from baseline
same,"cIAP1/Actin in PBMC, mean (SD)","cIAP-1; 120 mg, 3h, N=1",2% (0) % from baseline
same,"cIAP1/Actin in PBMC, median (range)","cIAP-1; 120 mg, 3h, N=1",2 (2-2) % from baseline
same,"cIAP1/Actin in PBMC, mean (SD)","cIAP-1; 120 mg, 6h, N=1",4% (0) % from baseline
same,"cIAP1/Actin in PBMC, median (range)","cIAP-1; 120 mg, 6h, N=1",4 (4-4) % from baseline
same,"cIAP1/Actin in PBMC, mean (SD)","cIAP-1; 120 mg, 12h, N=1",3% (0) % from baseline
same,"cIAP1/Actin in PBMC, median (range)","cIAP-1; 120 mg, 12h, N=1",3 (3-3) % from baseline
same,"cIAP1/Actin in PBMC, mean (SD)","cIAP-1; 120 mg, 24h, N=1",4% (0) % from baseline
same,"cIAP1/Actin in PBMC, median (range)","cIAP-1; 120 mg, 24h, N=1",4 (4-4) % from baseline
same,"cIAP1/Actin in PBMC, mean (SD)","cIAP-1; 120 mg, 99h, N=1",5% (0) % from baseline
same,"cIAP1/Actin in PBMC, median (range)","cIAP-1; 120 mg, 99h, N=1",5 (5-5) % from baseline
same,"cIAP1/Actin in PBMC, mean (SD)","cIAP-1; 180 mg, 1h, N=6",34% (31) % from baseline
same,"cIAP1/Actin in PBMC, median (range)","cIAP-1; 180 mg, 1h, N=6",33 (0-78) % from baseline
same,"cIAP1/Actin in PBMC, mean (SD)","cIAP-1; 180 mg, 3h, N=6",20% (25) % from baseline
same,"cIAP1/Actin in PBMC, median (range)","cIAP-1; 180 mg, 3h, N=6",12 (3-68) % from baseline
same,"cIAP1/Actin in PBMC, mean (SD)","cIAP-1; 180 mg, 6h, N=7",6% (8) % from baseline
same,"cIAP1/Actin in PBMC, median (range)","cIAP-1; 180 mg, 6h, N=7",5 (0-24) % from baseline
same,"cIAP1/Actin in PBMC, mean (SD)","cIAP-1; 180 mg, 12h, N=3",8% (7) % from baseline
same,"cIAP1/Actin in PBMC, median (range)","cIAP-1; 180 mg, 12h, N=3",5 (4-16) % from baseline
same,"cIAP1/Actin in PBMC, mean (SD)","cIAP-1; 180 mg, 24h, N=6",9% (10) % from baseline
same,"cIAP1/Actin in PBMC, median (range)","cIAP-1; 180 mg, 24h, N=6",5 (3-29) % from baseline
same,"cIAP1/Actin in PBMC, mean (SD)","cIAP-1; 180 mg, 99h, N=6",2% (2) % from baseline
same,"cIAP1/Actin in PBMC, median (range)","cIAP-1; 180 mg, 99h, N=6",0 (0-5) % from baseline
same,"cIAP1/Actin in PBMC, mean (SD)","cIAP-1; 260 mg, 1h, N=3",39% (33) % from baseline
same,"cIAP1/Actin in PBMC, median (range)","cIAP-1; 260 mg, 1h, N=3",44 (4-70) % from baseline
same,"cIAP1/Actin in PBMC, mean (SD)","cIAP-1; 260 mg, 3h, N=3",45% (50) % from baseline
same,"cIAP1/Actin in PBMC, median (range)","cIAP-1; 260 mg, 3h, N=3",24 (9-103) % from baseline
same,"cIAP1/Actin in PBMC, mean (SD)","cIAP-1; 260 mg, 6h, N=3",9% (4) % from baseline
same,"cIAP1/Actin in PBMC, median (range)","cIAP-1; 260 mg, 6h, N=3",8 (5-13) % from baseline
same,"cIAP1/Actin in PBMC, mean (SD)","cIAP-1; 260 mg, 12h, N=2",14% (5) % from baseline
same,"cIAP1/Actin in PBMC, median (range)","cIAP-1; 260 mg, 12h, N=2",14 (10-17) % from baseline
same,"cIAP1/Actin in PBMC, mean (SD)","cIAP-1; 260 mg, 24h, N=3",9% (7) % from baseline
same,"cIAP1/Actin in PBMC, median (range)","cIAP-1; 260 mg, 24h, N=3",6 (5-16) % from baseline
same,"cIAP1/Actin in PBMC, mean (SD)","cIAP-1; 260 mg, 99h, N=3",6% (3) % from baseline
same,"cIAP1/Actin in PBMC, median (range)","cIAP-1; 260 mg, 99h, N=3",6 (3-8) % from baseline
same,"cIAP1/Actin in PBMC, mean (SD)","cIAP-1; 400 mg, 1h, N=1",14% (0) % from baseline
same,"cIAP1/Actin in PBMC, median (range)","cIAP-1; 400 mg, 1h, N=1",14 (14-14) % from baseline
same,"cIAP1/Actin in PBMC, mean (SD)","cIAP-1; 400 mg, 3h, N=2",4% (2) % from baseline
same,"cIAP1/Actin in PBMC, median (range)","cIAP-1; 400 mg, 3h, N=2",4 (3-6) % from baseline
same,"cIAP1/Actin in PBMC, mean (SD)","cIAP-1; 400 mg, 6h, N=2",6% (4) % from baseline
same,"cIAP1/Actin in PBMC, median (range)","cIAP-1; 400 mg, 6h, N=2",6 (2-9) % from baseline
same,"cIAP1/Actin in PBMC, mean (SD)","cIAP-1; 400 mg, 24h, N=2",19% (26) % from baseline
same,"cIAP1/Actin in PBMC, median (range)","cIAP-1; 400 mg, 24h, N=2",19 (0-37) % from baseline
same,"cIAP1/Actin in PBMC, mean (SD)","cIAP-1; 400 mg, 99h, N=2",28% (31) % from baseline
same,"cIAP1/Actin in PBMC, median (range)","cIAP-1; 400 mg, 99h, N=2",28 (6-51) % from baseline
same,"cIAP1/Actin in PBMC, mean (SD)","cIAP-1; 600 mg, 1h, N=3",27% (9) % from baseline
same,"cIAP1/Actin in PBMC, median (range)","cIAP-1; 600 mg, 1h, N=3",25 (20-38) % from baseline
same,"cIAP1/Actin in PBMC, mean (SD)","cIAP-1; 600 mg, 3h, N=3",24% (11) % from baseline
same,"cIAP1/Actin in PBMC, median (range)","cIAP-1; 600 mg, 3h, N=3",18 (17-36) % from baseline
same,"cIAP1/Actin in PBMC, mean (SD)","cIAP-1; 600 mg, 6h, N=3",20% (11) % from baseline
same,"cIAP1/Actin in PBMC, median (range)","cIAP-1; 600 mg, 6h, N=3",17 (11-33) % from baseline
same,"cIAP1/Actin in PBMC, mean (SD)","cIAP-1; 600 mg, 12h, N=1",36% (0) % from baseline
same,"cIAP1/Actin in PBMC, median (range)","cIAP-1; 600 mg, 12h, N=1",36 (36-36) % from baseline
same,"cIAP1/Actin in PBMC, mean (SD)","cIAP-1; 600 mg, 24h, N=3",29% (36) % from baseline
same,"cIAP1/Actin in PBMC, median (range)","cIAP-1; 600 mg, 24h, N=3",14 (3-70) % from baseline
same,"cIAP1/Actin in PBMC, mean (SD)","cIAP-1; 600 mg, 99h, N=2",14% (19) % from baseline
same,"cIAP1/Actin in PBMC, median (range)","cIAP-1; 600 mg, 99h, N=2",14 (0-28) % from baseline
same,"cIAP1/Actin in PBMC, mean (SD)","cIAP-1; 900 mg, 1h, N=5",11% (8) % from baseline
same,"cIAP1/Actin in PBMC, median (range)","cIAP-1; 900 mg, 1h, N=5",9 (2-24) % from baseline
same,"cIAP1/Actin in PBMC, mean (SD)","cIAP-1; 900 mg, 3h, N=4",15% (23) % from baseline
same,"cIAP1/Actin in PBMC, median (range)","cIAP-1; 900 mg, 3h, N=4",3 (3-49) % from baseline
same,"cIAP1/Actin in PBMC, mean (SD)","cIAP-1; 900 mg, 6h, N=4",14% (13) % from baseline
same,"cIAP1/Actin in PBMC, median (range)","cIAP-1; 900 mg, 6h, N=4",11 (1-32) % from baseline
same,"cIAP1/Actin in PBMC, mean (SD)","cIAP-1; 900 mg, 12h, N=2",9% (2) % from baseline
same,"cIAP1/Actin in PBMC, median (range)","cIAP-1; 900 mg, 12h, N=2",9 (7-10) % from baseline
same,"cIAP1/Actin in PBMC, mean (SD)","cIAP-1; 900 mg, 24h, N=4",11% (18) % from baseline
same,"cIAP1/Actin in PBMC, median (range)","cIAP-1; 900 mg, 24h, N=4",3 (0-38) % from baseline
same,"cIAP1/Actin in PBMC, mean (SD)","cIAP-1; 900 mg, 99h, N=4",7% (6) % from baseline
same,"cIAP1/Actin in PBMC, median (range)","cIAP-1; 900 mg, 99h, N=4",8 (0-14) % from baseline
same,cIAP1 in PBMCs (Western blot),"cIAP-1; patients with detectable cIAP1, doses above 80 mg",decreased; also recorded: rapid and persistent cIAP1 degradation
